# PMC10461829, “NlpC/P60 peptidoglycan hydrolases of Trichomonas vaginalis have complementary activities that empower the protozoan to control host-protective lactobacilli” (PLOS Pathogens, 2023)
# Biological target: T1, TvNlpC_B3 (Trichomonas vaginalis, UniProt A2FQ38)
# T1 construct: gene TVAG_042760; N-terminal His6-3C tag cleaved; E. coli BL21(DE3), pET47b; model Asn23-Tyr137; catalytic Cys53/His99/His111; no SH3 domain; E64 adduct 14,046 Da
# Assay: X-ray crystal structure of complex; mass spectrometry of covalent adduct
# Assay type: binding
# Conditions: covalent at Cys53 via C2; at least 5:1 molar ratio, 1 h, room temperature; only a 131 Da fragment of E64 modelled, intact adduct seen by mass spectrometry
structure (smiles),measurement,value
CC(C)C[C@H](NC(=O)[C@H]1O[C@@H]1C(=O)O)C(=O)NCCCCNC(=N)N [E64],X-ray crystal structure of complex; mass spectrometry of covalent adduct,The structure of TvNlpC_B3 bound to the inhibitor E64 was determined by molecular replacement
